These results are taken from article PMC4564614, “Purification and Characterization of Asparaginase from Phaseolus vulgaris Seeds” (Evidence-based Complementary and Alternative Medicine : eCAM, 2015).

This assay deals with T1, L-asparaginase I (asparaginase I).
T1 construct: gene ASPG1
As to conditions: 50 mM Tris-HCl pH 8.0, 50 mM KCl, 37 °C (standard assay); L-asparagine 2-20 mM.

Turning to `NC(=O)C[C@H](N)C(=O)O` [L-asparagine], the Michaelis-Menten constant (Km) was 6.72 mM.

As a reminder, the Km is the concentration of substrate that gives half-maximal velocity.
